In PMC3574189 (Journal of medicinal chemistry, 2013):

Key:
[1] = tested on: PRI54M (PR with I54M mutation); experiment: Fluorescence assay of HIV-1 protease inhibition; format: biochemical; settings: PRI54M vs PRWT
[2] = tested on: PRV82A (PR with V82A mutation); experiment: Fluorescence assay of HIV-1 protease inhibition; format: biochemical; settings: PRV82A vs PRWT
PRD30N = settings: mutant PRD30N; ref [22], [23]; cited from earlier work
PRI50V = settings: mutant PRI50V; ref [22], [23]; cited from earlier work

COc1ccc(S(=O)(=O)N(CC(C)C)C[C@@H](O)[C@H](Cc2ccccc2)NC(=O)O[C@H]2CO[C@H]3O[C@@H]4OCC[C@@H]4[C@H]32)cc1 [Compound 1, GRL-0519]
increased Ki relative to PRWT [1]: 6-7 fold | increased Ki relative to PRWT [2]: 6-7 fold

CC(C)CN(C[C@@H](O)[C@H](Cc1ccccc1)NC(=O)O[C@H]1CO[C@H]2OCC[C@H]21)S(=O)(=O)c1ccc(N)cc1 [DRV, darunavir]
Ki (PRD30N): 6.6 nM | Ki (PRI50V): ≤ 18 nM
